Several values for one entry are separate records, joined by “and”; a condition that tells them apart may be missing. Equal values may be shown once.
Test: xn = mol fraction of the nth substance listed

C1CCCCC1 + CO
viscosity [mPa·s], 101.32 kPa
Settings	321.15 K	322.15 K	323.15 K
x2 = 0.121	0.5549	0.5469	0.539
x2 = 0.226	0.5465	0.5386	0.5465
x2 = 0.396	0.5423	0.5334	0.5239
x2 = 0.467	0.5629	0.5508	0.5356
x2 = 0.5	0.5933	0.5559	0.5379
x2 = 0.527	0.5771	0.5464	0.53
x2 = 0.637	0.5116	0.5017	0.4925
x2 = 0.724	0.4688	0.4624	0.4564
x2 = 0.762	0.4569	0.4514	0.4459
x2 = 0.798	0.4443	0.4363	0.4338
x2 = 0.83	0.4338	0.4284	0.4233
x2 = 0.86	0.4249	0.4198	0.4148
x2 = 0.913	0.4122	0.4074	0.4024
x2 = 0.959	0.4053	0.4003	0.3956

COC(C)=O + CC#N
303.15 K, 101.33 kPa
Settings	viscosity [mPa·s]
x2 = 0.1087	0.3472
x2 = 0.1994	0.3482
x2 = 0.3009	0.3485
x2 = 0.4037	0.3481
x2 = 0.4994	0.3474
x2 = 0.5996	0.3461
x2 = 0.7019	0.3429
x2 = 0.7979	0.3376
x2 = 0.9006	0.3322

COC(C)=O + Cc1ccccc1
viscosity [mPa·s], 101 kPa
Settings	298.15 K	308.15 K
x1 = 0.0413	0.536	0.487
x1 = 0.1501	0.502	0.459
x1 = 0.2505	0.476	0.437
x1 = 0.3495	0.454	0.419
x1 = 0.4385	0.437	0.404
x1 = 0.4859	0.429	0.397
x1 = 0.5491	0.42	0.389
x1 = 0.6486	0.407	0.377
x1 = 0.7514	0.397	0.367
x1 = 0.848	0.39	0.36
x1 = 0.9445	0.386	0.354

CCCCC(CC)COC(=O)CC(C(=O)OCC(CC)CCCC)S(=O)(=O)[O-].C[NH+]1C=CN=C1 (centres undefined) + O
99.6 kPa, x2 = 0.09474
Settings	viscosity [mPa·s]
293.15 K	3381
303.15 K	1440
313.15 K	684
323.15 K	359

CCC(C)=O + Cc1ccc(C)cc1
307.35 K, 101.33 kPa
Settings	viscosity [mPa·s]
x1 = 0.1273	0.515
x1 = 0.311	0.48
x1 = 0.3949	0.457
x1 = 0.5326	0.434
x1 = 0.5913	0.419
x1 = 0.6949	0.401
x1 = 0.7871	0.388

COc1ccccc1N + CCC(C)O
viscosity [mPa·s], 101 kPa
Settings	x1 = 0.1106	x1 = 0.1844	x1 = 0.2647	x1 = 0.3523	x1 = 0.4825	x1 = 0.5919	x1 = 0.6713	x1 = 0.7566	x1 = 0.8969
303.15 K	2.843	3.007	3.188	3.385	3.681	3.931	4.114	4.314	4.656
308.15 K	2.398	2.561	2.739	2.935	3.229	3.483	3.671	3.878	4.233
313.15 K	2.083	2.242	2.413	2.602	2.891	3.143	3.331	3.541	3.906
318.15 K	1.788	1.942	2.107	2.29	2.572	2.825	3.017	3.231	3.6

COCCOC + Cc1ccccc1
298.15 K, 101 kPa
Settings	viscosity [mPa·s]
x1 = 0.102	0.535
x1 = 0.2036	0.509
x1 = 0.3047	0.486
x1 = 0.4053	0.462
x1 = 0.5055	0.444
x1 = 0.6053	0.434
x1 = 0.7046	0.429
x1 = 0.8035	0.425
x1 = 0.902	0.419

COCCOC + Nc1ccccc1
298.15 K, 101 kPa
Settings	viscosity [mPa·s]
x1 = 0.103	2.958
x1 = 0.2053	2.326
x1 = 0.3069	1.85
x1 = 0.4079	1.488
x1 = 0.5082	1.194
x1 = 0.6079	0.96
x1 = 0.7068	0.778
x1 = 0.8052	0.625
x1 = 0.9029	0.505

CCC(C)=O + Cc1ccccc1
viscosity, 101 kPa
Settings	298.15 K	303.15 K	308.15 K
x1 = 0.1009	–	0.516 mPa·s	–
x1 = 0.2412	–	0.496 mPa·s	–
x1 = 0.3948	–	0.475 mPa·s	–
x1 = 0.524	–	0.458 mPa·s	–
x1 = 0.7006	–	0.431 mPa·s	–
x1 = 0.8899	–	0.397 mPa·s	–
x2 = 0.0856	0.4052 mPa·s and 0.4052 mPa·s	0.3822 mPa·s and 0.3822 mPa·s	0.3593 mPa·s and 0.3593 mPa·s
x2 = 0.1724	0.4244 mPa·s and 0.4244 mPa·s	0.3996 mPa·s and 0.3996 mPa·s	0.3756 mPa·s and 0.3756 mPa·s
x2 = 0.2624	0.4439 mPa·s and 0.4439 mPa·s	0.4176 mPa·s and 0.4176 mPa·s	0.3922 mPa·s and 0.3922 mPa·s
x2 = 0.337	0.4594 mPa·s and 0.4594 mPa·s	0.432 mPa·s and 0.432 mPa·s	0.4061 mPa·s and 0.4061 mPa·s
x2 = 0.433	0.4781 mPa·s and 0.4781 mPa·s	0.4494 mPa·s and 0.4494 mPa·s	0.423 mPa·s and 0.423 mPa·s
x2 = 0.5555	0.4987 mPa·s and 0.4987 mPa·s	0.4688 mPa·s and 0.4688 mPa·s	0.4417 mPa·s and 0.4417 mPa·s
x2 = 0.66	0.5145 mPa·s and 0.5145 mPa·s	0.4844 mPa·s and 0.4844 mPa·s	0.4575 mPa·s and 0.4575 mPa·s
x2 = 0.769	0.5308 mPa·s and 0.5308 mPa·s	0.5002 mPa·s and 0.5002 mPa·s	0.4738 mPa·s and 0.4738 mPa·s
x2 = 0.8831	0.5472 mPa·s and 0.5472 mPa·s	0.5168 mPa·s and 0.5168 mPa·s	0.4909 mPa·s and 0.4909 mPa·s

O=C(O)c1ccccc1 + CO
viscosity [mPa·s]
Settings	298.15 K	303.15 K	308.15 K	313.15 K	318.15 K
101 kPa, x1 = 0.15	–	1.196	–	–	0.9466
101 kPa, x1 = 0.151	1.311	1.196	1.098	1.014	0.9466
101 kPa, x1 = 0.16	–	1.29	–	–	1.002
101 kPa, x1 = 0.179	–	1.36	1.25	1.147	1.053
101 kPa, x1 = 0.18	–	1.36	–	–	1.053
101 kPa, x1 = 0.2	–	–	–	–	1.133
101.33 kPa, x1 = 0.15	1.311	1.196	1.098	1.014	0.9466
101.33 kPa, x1 = 0.1514	–	1.196	–	–	0.9466
101.33 kPa, x1 = 0.1626	–	1.29	–	–	1.002
101.33 kPa, x1 = 0.1788	–	1.36	–	–	1.053
101.33 kPa, x1 = 0.18	–	1.36	1.25	1.147	1.053
101.33 kPa, x1 = 0.1961	–	–	–	–	1.133

CCC(C)=O + CN(C)C=O
298.15 K, 101 kPa
Settings	viscosity [mPa·s]
x2 = 0.0395	0.387
x2 = 0.0843	0.403
x2 = 0.1186	0.414
x2 = 0.1681	0.43
x2 = 0.2276	0.451
x2 = 0.2773	0.471
x2 = 0.3768	0.499
x2 = 0.5116	0.547
x2 = 0.6168	0.581
x2 = 0.7438	0.662
x2 = 0.8079	0.698
